Key:
MET = details: cited from earlier work
[1] = tested on: MET-dependent tumor models; details: at well tolerated doses; cited from earlier work
[2] = tested on: MET-amplified experimental HCC tumors; details: cited from earlier work
[3] = tested on: patients with advanced solid tumors; details: cited from earlier work
Plasma pharmacokinetics = format: in vivo, human

CNC(=O)c1ccc(-c2cnc3ncc(Cc4ccc5ncccc5c4)n3n2)cc1F [capmatinib]
MET inhibition (MET): highly potent and selective | effect on MET-dependent tumor models [1]: causes regression | sensitivity of tumors to capmatinib [2]: highly sensitive | safety profile [3]: tolerable safety profile | Tmax, Median (Plasma pharmacokinetics; 300 mg BID capsule, Cycle 1 Day 1, n = 8, plasma): 2.0 h | AUC(0-t) (Plasma pharmacokinetics; human, plasma, oral, 300 mg, geomean AUC0−12 h, 300 mg BID capsules, cycle 1 day 1): 7740 ng·h/mL | Cmax (Plasma pharmacokinetics; human, plasma, oral, 300 mg, geomean Cmax, 300 mg BID capsules, cycle 1 day 1): 2140 ng/mL | steady-state accumulation (Plasma pharmacokinetics; patients with HCC): minimal
